Test results: ChEMBL document CHEMBL4138123, “Design, synthesis and biological evaluation of novel pyrazolochalcones as potential modulators of PI3K/Akt/mTOR pathway and inducers of apoptosis in breast cancer cells” (Eur J Med Chem, 2017)

Key:
Assay type in all cases: functional
RPMI-8226 = experiment: Cytotoxicity against human RPMI8226 cells assessed as growth inhibition after 48 hrs by sulforhodamine B assay; details: RPMI-8226, 48 h
HOP-62 = experiment: Cytotoxicity against human HOP62 cells assessed as growth inhibition after 48 hrs by sulforhodamine B assay; details: HOP-62, 48 h
NCI-H23 = experiment: Cytotoxicity against human NCI-H23 cells assessed as growth inhibition after 48 hrs by sulforhodamine B assay; details: NCI-H23, 48 h; for CC50: read-out: LC50 (the source's name)
SNB-19 = experiment: Cytotoxicity against human SNB19 cells assessed as growth inhibition after 48 hrs by sulforhodamine B assay; details: SNB-19, 48 h; for CC50: read-out: LC50 (the source's name)
SK-MEL-5 = experiment: Cytotoxicity against human SK-MEL-5 cells assessed as growth inhibition after 48 hrs by sulforhodamine B assay; details: SK-MEL-5, 48 h
A498 [1] = experiment: Cytotoxicity against human A498 cells assessed as growth inhibition after 48 hrs by sulforhodamine B assay; details: A498, 48 h
TK-10 [2] = experiment: Cytotoxicity against human TK10 cells assessed as growth inhibition after 48 hrs by sulforhodamine B assay; details: TK-10, 48 h
UO-31 = experiment: Cytotoxicity against human UO31 cells assessed as growth inhibition after 48 hrs by sulforhodamine B assay; details: UO-31, 48 h
ACHN [3] = experiment: Cytotoxicity against human ACHN cells assessed as cell growth at 0.01 uM after 48 hrs by sulforhodamine B assay relative to control; details: read-out: Activity
OVCAR-8 = experiment: Cytotoxicity against human OVCAR8 cells assessed as cell growth at 0.01 uM after 48 hrs by sulforhodamine B assay relative to control; details: OVCAR-8, 48 h, read-out: Activity
SW-620 = experiment: Cytotoxicity against human SW620 cells assessed as cell growth at 0.01 uM after 48 hrs by sulforhodamine B assay relative to control; details: SW-620, 48 h, read-out: Activity
NCI-H460 = experiment: Cytotoxicity against human NCI-H460 cells assessed as cell growth at 0.01 uM after 48 hrs by sulforhodamine B assay relative to control; details: NCI-H460, 48 h, read-out: Activity
TK-10 [4] = experiment: Cytotoxicity against human TK10 cells assessed as cell growth at 0.01 uM after 48 hrs by sulforhodamine B assay relative to control; details: TK-10, 48 h, read-out: Activity
SR = experiment: Cytotoxicity against human SR cells assessed as cell growth at 0.1 uM after 48 hrs by sulforhodamine B assay relative to control; details: read-out: Activity
HCT-15 [5] = experiment: Cytotoxicity against human HCT15 cells assessed as cell growth at 0.1 uM after 48 hrs by sulforhodamine B assay relative to control; details: HCT-15, 48 h, read-out: Activity
HT-29 = experiment: Cytotoxicity against human HT-29 cells assessed as cell growth at 0.1 uM after 48 hrs by sulforhodamine B assay relative to control; details: HT-29, 48 h, read-out: Activity
MDA-MB-435 = experiment: Cytotoxicity against human MDA-MB-435 cells assessed as cell growth at 0.1 uM after 48 hrs by sulforhodamine B assay relative to control; details: MDA-MB-435, 48 h, read-out: Activity
SK-MEL-28 = experiment: Cytotoxicity against human SK-MEL-28 cells assessed as cell growth at 0.1 uM after 48 hrs by sulforhodamine B assay relative to control; details: SK-MEL-28, 48 h, read-out: Activity
NCI/ADR-RES = experiment: Cytotoxicity against human NCI/ADR-RES cells assessed as cell growth at 0.1 uM after 48 hrs by sulforhodamine B assay relative to control; details: read-out: Activity
A498 [6] = experiment: Cytotoxicity against human A498 cells assessed as cell growth at 0.1 uM after 48 hrs by sulforhodamine B assay relative to control; details: A498, 48 h, read-out: Activity
HCT-15 [7] = experiment: Cytotoxicity against human HCT15 cells assessed as cell growth at 1 uM after 48 hrs by sulforhodamine B assay relative to control; details: HCT-15, 48 h, read-out: Activity
M14 = experiment: Cytotoxicity against human M14 cells assessed as cell growth at 1 uM after 48 hrs by sulforhodamine B assay relative to control; details: M14, 48 h, read-out: Activity
MDA-MB-468 = experiment: Cytotoxicity against human MDA-MB-468 cells assessed as cell growth at 1 uM after 48 hrs by sulforhodamine B assay relative to control; details: MDA-MB-468, 48 h, read-out: Activity
HCC 2998 = experiment: Cytotoxicity against human HCC2998 cells assessed as cell growth at 10 uM after 48 hrs by sulforhodamine B assay relative to control; details: HCC 2998, 48 h, read-out: Activity
ACHN [8] = experiment: Cytotoxicity against human ACHN cells assessed as cell growth at 10 uM after 48 hrs by sulforhodamine B assay relative to control; details: read-out: Activity
TK-10 [9] = experiment: Cytotoxicity against human TK10 cells assessed as cell growth at 10 uM after 48 hrs by sulforhodamine B assay relative to control; details: TK-10, 48 h, read-out: Activity
PC-3 [10] = experiment: Cytotoxicity against human PC3 cells assessed as cell growth at 10 uM after 48 hrs by sulforhodamine B assay relative to control; details: PC-3, 48 h, read-out: Activity
MOLT-4 = experiment: Cytotoxicity against human MOLT4 cells assessed as cell growth at 100 uM after 48 hrs by sulforhodamine B assay relative to control; details: MOLT-4, 48 h, read-out: Activity
KM12 = experiment: Cytotoxicity against human KM12 cells assessed as cell growth at 100 uM after 48 hrs by sulforhodamine B assay relative to control; details: KM12, 48 h, read-out: Activity
Malme-3M = experiment: Cytotoxicity against human MALME-3M cells assessed as cell growth at 100 uM after 48 hrs by sulforhodamine B assay relative to control; details: read-out: Activity
ACHN [11] = experiment: Cytotoxicity against human ACHN cells assessed as cell growth at 100 uM after 48 hrs by sulforhodamine B assay relative to control; details: read-out: Activity
PC-3 [12] = experiment: Cytotoxicity against human PC3 cells assessed as cell growth at 100 uM after 48 hrs by sulforhodamine B assay relative to control; details: PC-3, 48 h, read-out: Activity
MDA-MB-231 = experiment: Cytotoxicity against human MDA-MB-231 cells assessed as cell growth at 100 uM after 48 hrs by sulforhodamine B assay relative to control; details: MDA-MB-231, 48 h, read-out: Activity
BT-549 = experiment: Cytotoxicity against human BT549 cells assessed as cell growth at 100 uM after 48 hrs by sulforhodamine B assay relative to control; details: BT-549, 48 h, read-out: Activity

Which results are given for `COc1cc(-c2cc(/C=C/C(=O)c3ccc(Cl)c(Cl)c3)[nH]n2)cc(OC)c1OC`?
LC50 (RPMI-8226): > 100 µM; TGI (RPMI-8226): 6.73 µM; LC50 (HOP-62): 42.6 µM; TGI (HOP-62): 7.66 µM; TGI (NCI-H23): > 100 µM; CC50 (NCI-H23): > 100 µM; TGI (SNB-19): > 100 µM; CC50 (SNB-19): > 100 µM; LC50 (concentration killing 50% of cells) (SK-MEL-5): > 100 µM; TGI (SK-MEL-5): 46.9 µM; LC50 (A498 [1]): > 100 µM; TGI (A498 [1]): 43 µM; LC50 (TK-10 [2]): > 100 µM; TGI (TK-10 [2]): 43.2 µM; LC50 (UO-31): > 100 µM; TGI (UO-31): > 100 µM; growth at 0.01 µM (ACHN [3]): 107%; growth at 0.01 µM (OVCAR-8): 94%; growth at 0.01 µM (SW-620): 98%; growth at 0.01 µM (NCI-H460): 105%; growth at 0.01 µM (TK-10 [4]): 90%; growth at 0.1 µM (SR): 89%; growth at 0.1 µM (HCT-15 [5]): 94%; growth at 0.1 µM (HT-29): 98%; growth at 0.1 µM (MDA-MB-435): 96%; growth at 0.1 µM (SK-MEL-28): 114%; growth at 0.1 µM (NCI/ADR-RES): 96%; growth at 0.1 µM (A498 [6]): 89%; growth at 1 µM (HCT-15 [7]): 86%; growth at 1 µM (M14): 107%; growth at 1 µM (MDA-MB-468): 76%; growth at 10 µM (HCC 2998): 49%; growth at 10 µM (ACHN [8]): 67%; growth at 10 µM (TK-10 [9]): 46%; growth at 10 µM (PC-3 [10]): 39%; growth at 100 µM (MOLT-4): -15%; growth at 100 µM (KM12): 3%; growth at 100 µM (Malme-3M): 24%; growth at 100 µM (ACHN [11]): 16%; growth at 100 µM (PC-3 [12]): 10%; growth at 100 µM (MDA-MB-231): 2%; growth at 100 µM (BT-549): -53%

How did the LC50 (RPMI-8226) turn out when `COc1cc(C(=O)/C=C/c2cc(-c3cc(OC)c(OC)c(OC)c3)n[nH]2)cc(OC)c1OC` was run?
Its LC50 is > 100 µM.

And the TGI (RPMI-8226)?
The TGI was 2.06 µM.

And the LC50 (HOP-62)?
The LC50 was 5.74 µM.

What about the TGI (HOP-62) of the same compound?
The TGI was 2.89 µM.

And the TGI (NCI-H23)?
The TGI was 9.9 µM.

And the CC50 (NCI-H23)?
The CC50 was 64.3 µM.

And the TGI (SNB-19)?
The TGI was 3.69 µM.

And the CC50 (SNB-19)?
Its CC50 is 8.2 µM.

And the LC50 (concentration killing 50% of cells) (SK-MEL-5)?
The LC50 (concentration killing 50% of cells) was 5.49 µM.

What about the TGI (SK-MEL-5) of the same compound?
The TGI was 2.94 µM.

What about the LC50 (A498 [1]) of the same compound?
The LC50 was 8.02 µM.

And the TGI (A498 [1])?
The TGI was 3.59 µM.

What about the LC50 (TK-10 [2]) of the same compound?
The LC50 was 5.34 µM.

And the TGI (TK-10 [2])?
The TGI was 2.8 µM.

What about the LC50 (UO-31) of the same compound?
Its LC50 is 5.16 µM.

What about the TGI (UO-31) of the same compound?
The TGI was 2.48 µM.

What about the growth at 0.01 µM (ACHN [3]) of the same compound?
Its growth at 0.01 µM is 103%.

And the growth at 0.01 µM (OVCAR-8)?
Its growth at 0.01 µM is 100%.

And the growth at 0.01 µM (SW-620)?
The growth at 0.01 µM was 96%.

And the growth at 0.01 µM (NCI-H460)?
The growth at 0.01 µM was 102%.

What about the growth at 0.01 µM (TK-10 [4]) of the same compound?
Its growth at 0.01 µM is 99%.

What about the growth at 0.1 µM (SR) of the same compound?
The growth at 0.1 µM was 93%.

And the growth at 0.1 µM (HCT-15 [5])?
Its growth at 0.1 µM is 94%.

What about the growth at 0.1 µM (HT-29) of the same compound?
The growth at 0.1 µM was 102%.

And the growth at 0.1 µM (MDA-MB-435)?
Its growth at 0.1 µM is 94%.

And the growth at 0.1 µM (SK-MEL-28)?
Its growth at 0.1 µM is 105%.

And the growth at 0.1 µM (NCI/ADR-RES)?
Its growth at 0.1 µM is 106%.

And the growth at 0.1 µM (A498 [6])?
Its growth at 0.1 µM is 90%.

And the growth at 1 µM (HCT-15 [7])?
The growth at 1 µM was 76%.

What about the growth at 1 µM (M14) of the same compound?
The growth at 1 µM was 98%.

And the growth at 1 µM (MDA-MB-468)?
The growth at 1 µM was 59%.

What about the growth at 10 µM (HCC 2998) of the same compound?
The growth at 10 µM was -87%.

What about the growth at 10 µM (ACHN [8]) of the same compound?
The growth at 10 µM was -97%.

And the growth at 10 µM (TK-10 [9])?
The growth at 10 µM was -98%.

What about the growth at 10 µM (PC-3 [10]) of the same compound?
The growth at 10 µM was -69%.

What about the growth at 100 µM (MOLT-4) of the same compound?
Its growth at 100 µM is -15%.

And the growth at 100 µM (KM12)?
The growth at 100 µM was -81%.

What about the growth at 100 µM (Malme-3M) of the same compound?
Its growth at 100 µM is -94%.

And the growth at 100 µM (ACHN [11])?
Its growth at 100 µM is -98%.

What about the growth at 100 µM (PC-3 [12]) of the same compound?
Its growth at 100 µM is -94%.

What about the growth at 100 µM (MDA-MB-231) of the same compound?
The growth at 100 µM was -96%.

What about the growth at 100 µM (BT-549) of the same compound?
The growth at 100 µM was -94%.

`COc1ccc(-c2cc(/C=C/C(=O)c3ccc4c(c3)OCO4)[nH]n2)cc1OC` was tested. Which GI50 (RPMI-8226) did it give?
The GI50 was 0.37 µM.

And the GI50 (HOP-62)?
Its GI50 is 1.73 µM.

And the GI50 (NCI-H23)?
Its GI50 is 2.25 µM.

What about the GI50 (SNB-19) of the same compound?
The GI50 was 1.67 µM.

What about the GI50 (SK-MEL-5) of the same compound?
Its GI50 is 1.58 µM.

What about the GI50 (A498 [1]) of the same compound?
Its GI50 is 1.27 µM.

What about the GI50 (TK-10 [2]) of the same compound?
Its GI50 is 1.5 µM.

And the GI50 (UO-31)?
Its GI50 is 1.5 µM.
